What was measured:
[1] = tested on: Plasmodium falciparum; assay: Antiplasmodial activity against chloroquine-resistant Plasmodium falciparum W2 infected in human A positive erythrocyte assessed as inhibition of parasite growth after 72 hrs by parasite lactate dehydrogenase assay; type: functional, organism-based; conditions: W2, 72 h
[2] = tested on: Plasmodium falciparum; assay: Antiplasmodial activity against chloroquine-sensitive Plasmodium falciparum D10 infected in human A positive erythrocyte assessed as inhibition of parasite growth after 72 hrs by parasite lactate dehydrogenase assay; type: functional, organism-based; conditions: D10, 72 h
[3] = Cytotoxicity against mouse NIH/3T3 cells assessed as cell viability after 24 hrs by neutral red uptake assay; type: cell-based, NIH3T3; conditions: read-out: TC50
[4] = tested on: Plasmodium berghei; assay: Antimalarial activity against chloroquine-sensitive Plasmodium berghei ANKA erythrocytic stage infected in BALB/c mouse assessed as reduction in parasitaemia at 100 mg/kg, ip qd after 5 days by Peters 4 days test; type: functional; design: scale not given: the % may be the effect or the level left
[5] = tested on: Mus musculus; assay: Toxicity against BALB/c mouse infected with chloroquine-sensitive Plasmodium berghei ANKA at 100 mg/kg, ip qd for 5 days; type: organism-based; conditions: in vivo, 120 h

Compound `C[C@@]12CCO[C@@H]1OO[C@@](C)(C1CCCCC1)C2` (mixture of isomers) has an IC50 [1] of 140 nM and an IC50 [2] of 390 nM.
With `C[C@@]1(CC23CC4CC(CC(C4)C2)C3)C[C@]2(C)CCO[C@@H]2OO1` (mixture of isomers) the IC50 [1] was 390 nM and the IC50 [2] was 850 nM.
In the case of `C[C@@]12CCO[C@@H]1OO[C@@](C)(C1CCCC1)C2` (mixture of isomers), the IC50 [1] is reported as 800 nM and the IC50 [2] is reported as 1200 nM.
For `C[C@@]12CCO[C@@H]1OOC1(C2)C2CC3CC(C2)CC1C3` (mixture of isomers), the CC50 at 24 h [3] was 150000 nM, the Activity [4] was 72.5% and the IC50 [1] was 160 nM. For the same compound, the IC50 [2] was 610 nM and the Activity [5] was “Non-toxic”.
Compound `C1CCC2(CC1)OO[C@H]1CCCC[C@H]12` (racemic) has an IC50 [1] of 3200 nM and an IC50 [2] of 7200 nM.
Work on `C[C@@]12CCO[C@@H]1OOC21CCCCC1` (racemic) yielded an IC50 [1] of over 25000 nM and an IC50 [2] of 8500 nM.
Compound `C[C@@]12CCO[C@@H]1OOC1(CCCCC1)C2` (racemic) has an IC50 [1] of 1100 nM and an IC50 [2] of 5300 nM.
Compound `C[C@@]12CCO[C@@H]1OOC1(CCCCC1)CC2` (racemic) has an IC50 [1] of over 17000 nM and an IC50 [2] of over 20000 nM.
In the case of `C[C@@]12CCO[C@@H]1OOC1(CCCC1)C2` (racemic), the IC50 [1] is reported as 470 nM and the IC50 [2] is reported as 840 nM.
Compound `C[C@@H]1CC[C@H]2[C@@H](C)C(=O)O[C@@H]3O[C@@]4(C)CC[C@@H]1[C@]32OO4` [ARTEMISININ] has an IC50 [1] of 12 nM.

— ChEMBL document CHEMBL3734670, “Synthetic spirocyclic endoperoxides: new antimalarial scaffolds” (Medchemcomm, 2015)
